Results reported in PMC8237038 (Acta Pharmacologica Sinica, 2021).

Assays:
CYP3A [1] = biological target: T1, CYP3A (Homo sapiens, UniProt P08684); conditions: for inhibitory effects against CYP3A: microsomes
CYP3A [2] = biological target: T1, CYP3A; assay: in vitro; conditions: microsomes
CYP3A [3] = assay: in vitro; conditions: human, human liver microsomes, pH 7.4, probe testosterone (6β-hydroxylation)
[4] = Pharmacokinetic interactions between HEJG and lopinavir in rats; conditions: lopinavir in rat plasma; for AUC(0-inf) / Cmax: male, Sprague-Dawley, rat, plasma, po, 160 mg/kg
[5] = pH 7.4, Time-dependent inhibition IC50 Preincubation for 3 min
[6] = pH 7.4, Time-dependent inhibition IC50 Preincubation for 33 min
[7] = HEJG (3 g/kg, i.g.) + lopinavir (160 mg/kg, i.g.)
[8] = Water + lopinavir (160 mg/kg, i.g.), control group

T1 sequence (P08684 2-503): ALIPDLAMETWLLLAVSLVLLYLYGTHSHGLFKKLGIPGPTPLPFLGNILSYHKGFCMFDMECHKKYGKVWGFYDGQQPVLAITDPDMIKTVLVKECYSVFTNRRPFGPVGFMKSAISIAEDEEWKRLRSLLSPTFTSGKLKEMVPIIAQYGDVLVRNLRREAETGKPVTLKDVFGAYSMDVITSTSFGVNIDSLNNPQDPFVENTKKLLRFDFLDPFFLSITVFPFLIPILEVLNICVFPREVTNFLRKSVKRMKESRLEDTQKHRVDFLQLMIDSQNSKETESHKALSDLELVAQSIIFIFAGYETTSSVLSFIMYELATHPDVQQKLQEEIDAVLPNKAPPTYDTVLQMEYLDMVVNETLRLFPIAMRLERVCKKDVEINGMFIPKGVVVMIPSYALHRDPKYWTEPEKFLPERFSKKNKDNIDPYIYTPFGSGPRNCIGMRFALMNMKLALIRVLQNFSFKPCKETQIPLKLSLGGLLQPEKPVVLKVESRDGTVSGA

Question: For `O=C(O)/C=C/c1ccc(O)c(O)c1` [Caffeic acid], which “inhibitory effects against CYP3A” value (CYP3A [1]) is on record?
Answer: weak inhibitory effects

Question: What about the IC50 (CYP3A [2]; [5]) of the same molecule?
Answer: > 100 µM

Question: What about the IC50 (CYP3A [2]; [6]) of the same molecule?
Answer: > 100 µM

Question: For `O=C(/C=C/c1ccc(O)c(O)c1)O[C@@H]1C[C@](O)(C(=O)O)C[C@@H](O)[C@H]1O` [Chlorogenic acid], which “inhibitory effects against CYP3A” value (CYP3A [1]) is on record?
Answer: weak inhibitory effects

Question: What about the IC50 (CYP3A [2]; [5]) of the same molecule?
Answer: > 100 µM

Question: And the IC50 (CYP3A [2]; [6])?
Answer: > 100 µM

Question: What does the source list for `COc1cc(O)ccc1/C=C/C(=O)c1ccc(O)cc1` [Echinatin]?
Answer: Ratio (CYP3A [1]; constituents, IC50 3 min / 33 min preincubation): 3.20; IC50 (CYP3A [3]; Time-dependent inhibition IC50 Preincubation for 3 min, constituents, HLMs, 3 min preincubation): 25.9 ± 3.19 µM; IC50 (CYP3A [3]; Time-dependent inhibition IC50 Preincubation for 33 min, constituents, HLMs, 33 min preincubation): 8.08 ± 0.56 µM

Question: For `O=c1c(O)c(-c2ccc(O)cc2)oc2cc(O)cc(O)c12` [Kaempferol], which IC50 shift (CYP3A [2]; pH 7.4) is on record?
Answer: 2.01

Question: What about the IC50 (CYP3A [2]; [5]) of the same molecule?
Answer: 13.1 ± 1.29 µM

Question: What about the IC50 (CYP3A [2]; [6]) of the same molecule?
Answer: 6.53 ± 0.31 µM

Question: Which IC50 (CYP3A [3]) does the source give for `O=c1c(O)c(-c2ccc(O)c(O)c2)oc2cc(O)cc(O)c12` [Quercetin] here?
Answer: 3.95 ± 0.31 µM

Question: Which t1/2 [4, 7] does the source give for `Cc1cccc(C)c1OCC(=O)N[C@@H](Cc1ccccc1)[C@@H](O)C[C@H](Cc1ccccc1)NC(=O)[C@H](C(C)C)N1CCCNC1=O` [lopinavir] here?
Answer: 2.68 ± 0.45 h

Question: And the AUC(0-inf) [4, 7]?
Answer: 10200 ± 1570 ng·h/mL

Question: What about the AUC(0-inf) [4, 8] of the same molecule?
Answer: 4190 ± 131 ng·h/mL

Question: What about the Cmax [4, 7] of the same molecule?
Answer: 1860 ± 215 ng/mL

Question: What about the Cmax [4, 8] of the same molecule?
Answer: 1280 ± 55 ng/mL
